Reference: ChEMBL document CHEMBL1759874, “Feruloylacetone as the model compound of half-curcumin: synthesis and antioxidant properties” (2011)
Calls of active or inactive are those of the source. The calls are words filed in the database; no cut-off is given here.

Assays:
[1] = Antioxidant activity against AAPH-induced hemolysis in human erythrocytes assessed as inhibition time; type: functional, Erythrocyte
[2] = Antioxidant activity against AAPH-induced DNA damage assessed as inhibition period for TBARS production; type: functional
[3] = Antioxidant activity assessed as ABTS free radical scavenging activity at 50 uM; type: functional
[4] = system: Radical scavenging activity; assay: Antioxidant activity assessed as DPPH free radical scavenging activity at 50 uM; type: functional
[5] = Antioxidant activity assessed as galvinoxyl free radical scavenging activity at 25 uM; type: functional
[6] = Antioxidant activity against singlet oxygen radicals assessed as decrease of 4-nitroso-N,N-dimethylaniline decolorization at 250 uM after 40 mins by quenching assay; type: functional
[7] = Antioxidant activity against singlet oxygen radicals assessed as decrease of 4-nitroso-N,N-dimethylaniline decolorization after 40 mins by quenching assay; type: functional
[8] = Antioxidant activity against protection of autooxidation of linoleic acid at 50 uM by beta-carotene bleaching test; type: functional
[9] = Antioxidant activity against AAPH-induced methyl linoleate oxidation at 50 uM after 120 mins by beta-carotene bleaching test; type: functional
[10] = Antioxidant activity against hydroxyl radical-induced DNA damage assessed as TBARS production at 0.2 mM after 30 mins; type: functional
[11] = Antioxidant activity against AAPH-induced DNA damage assessed as TBARS production; type: functional
Erythrocyte [12] = assay: Antioxidant activity in human erythrocytes assessed as inhibition of hemin-induced hemolysis after 30 mins; type: functional, cell-based
Erythrocyte [13] = assay: Antioxidant activity in human erythrocytes assessed as inhibition of hemin-induced hemolysis at up to 120 uM after 30 mins; type: functional, cell-based
[14] = Antioxidant activity against singlet oxygen radicals assessed as decrease of 4-nitroso-N,N-dimethylaniline decolorization at up to 240 uM after 40 mins by quenching assay; type: functional
[15] = Antioxidant activity against AAPH-induced methyl linoleate oxidation assessed as inhibition period at 50 uM by beta-carotene bleaching test; type: functional
[16] = Antioxidant activity against Cu2+/GSH-induced oxidation of DNA assessed as TBARS production at 0.2 mM after 30 mins; type: functional
[17] = Antioxidant activity against singlet oxygen radicals assessed as decrease of 4-nitroso-N,N-dimethylaniline decolorization at 150 uM after 40 mins by quenching assay; type: functional
[18] = Antioxidant activity against AAPH-induced hemolysis in human erythrocytes assessed as inhibition time at 18 uM; type: functional, Erythrocyte
[19] = Antioxidant activity against AAPH-induced hemolysis in human erythrocytes assessed as inhibition time at 36 uM; type: functional, Erythrocyte
Erythrocyte [20] = assay: Antioxidant activity against AAPH-induced hemolysis in human erythrocytes at 54 uM; type: functional, cell-based

With `COc1cc(/C=C/C(=O)CC(=O)/C=C/c2ccc(O)c(OC)c2)ccc1O` [CURCUMIN] the Time [1] was 3.45 min and the TIME [2] was 0.0405 h.
With `CCOC(=O)/C(=C/c1ccc(O)c(OC)c1)C(C)=O` the Activity [3] was 1.78 µM/min, the Activity [4] was 7.54 µM/min and the Activity [5] was 0.02 µM/min. For the same compound, the Activity [6] was “Active”, the Activity [7] was “Dose-dependent effect” and the Activity [8] was “inactive”. For the same compound, the Activity [9] was “inactive”, the Activity [10] was “Active” and the Activity [11] was “Active”. For the same compound, the Time [1] was 1.83 min, the Activity (Erythrocyte [12]) was “Dose-dependent effect” and the TIME [2] was 0.0137 h.
Compound `COc1cc(/C=C/C(O)CC(C)O)ccc1O` (stereo not given) has an Activity [3] of 6.26 µM/min, an Activity [4] of 8.57 µM/min and an Activity [5] of 0.13 µM/min. For the same compound, the Activity [8] was “Active”, the Activity ([9]; TDE = time-dependent effect) was “tde” and the Activity [10] was “Active”. For the same compound, the Activity [11] was “Active”, the Time [1] was 2.05 min and the TIME [2] was 0.0185 h. The Activity (Erythrocyte [13]) was “inactive”, the Activity [14] was “inactive” and the TIME [15] was 1.95 h.
For `CC(=O)CC(=O)/C=C/c1ccc(O)c(O)c1`, the Activity [3] was 7.56 µM/min, the Activity [4] was 41.2 µM/min and the Activity [5] was 0.08 µM/min. The Activity [7] was “Dose-dependent effect”, the Activity [8] was “Active” and the Activity ([9]; TDE = time-dependent effect) was “tde”. For the same compound, the Activity [16] was “Active”, the Activity [10] was “Active” and the Activity [11] was “Active”. For the same compound, the Time [1] was 3.92 min, the Activity (Erythrocyte [12]) was “Dose-dependent effect” and the TIME [2] was 0.0428 h. It also gave a TIME [15] of 3.73 h.
In the case of `COc1cc(/C=C/C(=O)CC(C)=O)ccc1OCc1ccccc1`, the Activity [17] is reported as “Active”, the Activity [7] is reported as “Dose-dependent effect” and the Activity [8] is reported as “inactive”. The Activity [9] was “inactive”, the Activity [10] was “Active” and the Activity [11] was “Active”. The Time [1] was 3.3 min, the Time [18] was 80 min and the Time [19] was 56 min. For the same compound, the Activity (Erythrocyte [20]) was “Active” and the Activity (Erythrocyte [13]) was “inactive”.
`COc1cc(/C=C/C(=O)CC(C)=O)ccc1O` gave an Activity [3] of 6.04 µM/min, an Activity [4] of 22.3 µM/min and an Activity [5] of 0.13 µM/min. The Activity [7] was “Dose-dependent effect”, the Activity [8] was “Active” and the Activity ([9]; TDE = time-dependent effect) was “tde”. For the same compound, the Activity [16] was “Active”, the Activity [10] was “Active” and the Activity [11] was “Active”. The Time [1] was 2.38 min, the TIME [2] was 0.0237 h and the Activity (Erythrocyte [13]) was “inactive”. For the same compound, the TIME [15] was 3.68 h.
Compound `COc1cc(CCC(=O)CC(C)=O)ccc1O` has an Activity [3] of 3.85 µM/min, an Activity [4] of 16.9 µM/min and an Activity [5] of 0.06 µM/min. For the same compound, the Activity [7] was “Dose-dependent effect”, the Activity [8] was “inactive” and the Activity ([9]; TDE = time-dependent effect) was “tde”. For the same compound, the Activity [10] was “Active”, the Activity [11] was “Active” and the Time [1] was 3.48 min. For the same compound, the Activity (Erythrocyte [12]) was “Dose-dependent effect”, the TIME [2] was 0.0318 h and the TIME [15] was 2.67 h.
